These results are taken from patent publication US12351580B2, “NLRP3 modulators” (Innate Tumor Immunity, Inc., priority 2017, dated 2025).

T1 sequence (Q96P20 whole entry): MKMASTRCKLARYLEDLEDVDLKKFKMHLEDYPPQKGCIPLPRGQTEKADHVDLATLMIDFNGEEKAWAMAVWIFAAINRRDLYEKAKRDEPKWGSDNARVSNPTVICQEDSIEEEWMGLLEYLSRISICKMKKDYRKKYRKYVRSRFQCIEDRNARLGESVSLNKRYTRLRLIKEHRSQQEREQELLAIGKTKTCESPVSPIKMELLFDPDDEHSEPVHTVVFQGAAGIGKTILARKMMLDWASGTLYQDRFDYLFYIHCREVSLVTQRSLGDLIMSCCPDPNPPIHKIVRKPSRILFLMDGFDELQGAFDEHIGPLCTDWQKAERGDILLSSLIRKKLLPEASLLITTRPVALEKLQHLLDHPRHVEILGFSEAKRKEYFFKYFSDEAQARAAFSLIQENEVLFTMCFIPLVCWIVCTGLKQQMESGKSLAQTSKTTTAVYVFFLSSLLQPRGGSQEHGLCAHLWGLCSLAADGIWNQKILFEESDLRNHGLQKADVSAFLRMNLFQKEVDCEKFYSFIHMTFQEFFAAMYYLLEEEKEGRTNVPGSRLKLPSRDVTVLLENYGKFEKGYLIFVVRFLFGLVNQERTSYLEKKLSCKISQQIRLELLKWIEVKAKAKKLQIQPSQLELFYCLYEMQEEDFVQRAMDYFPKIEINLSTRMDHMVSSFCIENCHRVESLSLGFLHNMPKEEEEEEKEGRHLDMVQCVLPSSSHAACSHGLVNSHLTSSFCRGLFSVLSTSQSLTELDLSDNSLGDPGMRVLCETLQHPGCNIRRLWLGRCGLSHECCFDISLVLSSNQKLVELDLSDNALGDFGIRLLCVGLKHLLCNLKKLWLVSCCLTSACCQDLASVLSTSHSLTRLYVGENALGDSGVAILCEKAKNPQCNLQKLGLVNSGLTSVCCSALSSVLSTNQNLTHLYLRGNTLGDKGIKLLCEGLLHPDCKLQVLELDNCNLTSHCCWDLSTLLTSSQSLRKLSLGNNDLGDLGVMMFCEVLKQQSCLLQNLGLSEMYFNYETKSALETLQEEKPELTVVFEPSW

This test concerns the target T1, hNLRP3 (Homo sapiens, UniProt Q96P20).
T1 construct: THP-1 cells were purchased from the American Type Culture Collection; host or cells: THP-1 cells, PMA-differentiated
In words: Measurement of IL-1β production in PMA-differentiated THP-1 cells (hNLRP3 agonist; ELISA, alternative and hTRF procedures). The class given is cell-based. The procedure:
Measurement of IL-1β production in PMA-differentiated THP-1 cells THP-1 cells were purchased from the American Type Culture Collection and sub-cultured according to instructions from the supplier. Prior to experiments, cells were cultured in RPMI 1640 containing 10% heat inactivated FBS, penicillin (100 units/ml) and streptomycin (100 μg/ml), and maintained in log phase prior to experimental setup. Prior to the experiment THP-1 were treated with PMA (Phorbol 12-myristate 13-acetate) ([…]) for 24 hours. The day of the experiment the media was removed and attaching cells were treated with trypsin for 2 minutes, cells were then collected, washed with PBS (phosphate buffer saline), spin down, resuspended in 2% heat inactivated FBS with RPMI at a concentration of 1×10^6 cells/ml, and 100 μl was plated in a 96 well plate. Compounds were dissolved in dimethyl sulfoxide (DMSO) and added to the culture medium to achieve desired concentration (e.g. 100, 30, 10, 3, 1, 0.3 or 0.1 μM). Cells were incubated with compounds for 4 hours. Cell free supernatant was collected and the production of […] was evaluated by ELISA. A vehicle only control was run concurrently with each experiment. Final DMSO concentration was 1%.
Measurement of IL-1β Production in PMA-Differentiated THP-1 Cells (Alternative Procedure)
THP-1 cells were purchased from the American Type Culture Collection and sub-cultured according to instructions from the supplier. Prior to experiments, cells were cultured in RPMI 1640 containing 10% heat inactivated FBS, penicillin (100 units/ml), streptomycin (100 μg/ml), HEPES (10 mM) and sodium pyruvate (1 mM) and maintained in log phase prior to experimental setup. Prior to the experiment, THP-1 cells were treated with PMA (Phorbol 12-myristate 13-acetate) (20 μg/ml) overnight. The day of the experiment, the media was removed and attached cells were treated with trypsin for 2 minutes, cells were then collected, washed with PBS (phosphate buffer saline), pelleted by centrifugation and resuspended in 2% heat inactivated FBS with RPMI at a concentration of 50,000 cells/well in a 384 well plate. Cell free supernatant was collected and the production of IL-1β was evaluated by ELISA. Compounds were dissolved in dimethyl sulfoxide (DMSO) and added to the culture medium to achieve desired concentration (e.g. 100, 30, 10, 3, 1, 0.3 or 0.1 μM). Cells were incubated with compounds for 2 hours. A vehicle only control was run concurrently with each experiment. Final DMSO concentration was 1%.
Measurement of IL-1β Production—hTRF Protocol (Second Alternative Procedure)
Serial dilutions of compounds in DMSO were added to low volume 384 well plates at 100 nl/well using an ECHO 550 acoustic dispenser (Labcyte) to achieve final starting concentration of 10 μM in assay.
THP-1 cells in RPMI (Gibco, 11875) media with 10% FBS at a density of 1×10^6 cell/ml in a T175 flask were treated with a final concentration of phorbol 12-myristate 13-acetate (PMA) (Sigma, P1585) of 50 ng/ml overnight at 37° C. at 5% CO2 for differentiation. Cells were harvested the next day after rinsing well with dPBS using 0.5% trypsin. A cell solution was prepared of 1×10^6 cells/ml for 50,000 cells in 50 μl/well in RPMI media with 2% FBS. Cells were plated using a multichannel pipette onto the compound dilutions in Greiner, 384 well, black clear bottom tissue culture treated plates (781090). The plates were incubated in 37° C. incubator at 5% CO2 for 2 hours.
After the 2 hour incubation, the cell plates were spun in the centrifuge for 5 minutes at 1200 rpm. Using the Felix (CyBio), 8 μl of the supernatant was transferred to 384 well, low volume, white proxy plates. (Perkin Elmer, 6008230). A human IL1beta hTRF kit was used to analyze the supernatant (CISBIO, 62HIL1BPEG). The kit instructions were followed for preparing the IL1Beta standard curve and then the antibodies from the kit were diluted 1:40 rather than 1:20 as kit instructed.
(In an ELISA, binding on a coated surface is turned into a signal by an enzyme label.)
Broadly, the EC50 is the midpoint of the concentration-response curve. Low readings indicate greater potency, high ones weaker potency. Regarding `Nc1nc2cc(-n3cccn3)ccc2c2[nH]c(CN3CC(c4ccccc4)CC3=O)nc12` (centres unmarked) [Compound 103], it took 0.52 µM to reach a half-maximal effect (EC50).

As for `CCN(Cc1nc2c(N)nc3cc(C)ccc3c2[nH]1)C(C)=O` [Compound 104], the response was half-maximal at 0.6 µM (EC50). The EC50 values of the last two molecules are within 1.5-fold of each other.

As for `CCNCc1nc2c(N)nc3cc(-c4cc[nH]n4)ccc3c2n1C` [Compound 106, 2-((Ethylamino)methyl)-1-methyl-7-(1H-pyrazol-3-yl)-1H-imidazo[4,5-c]quinolin-4-amine], a half-maximal effect (EC50) was put at 0.7 µM.

As for `CCN(Cc1nc2c(N)nc3cc(-n4cccn4)ccc3c2[nH]1)S(C)(=O)=O` [Compound 108, N-((4-Amino-7-(1H-pyrazol-1-yl)-1H-imidazo[4,5-c]quinolin-2-yl)methyl)-N-ethylmethanesulfonamide], the EC50 was 0.87 µM. The EC50 values of the last two molecules are within 1.5-fold of each other.

Take `CCN(Cc1nc2c(N)nc3cc(-c4cc[nH]n4)ccc3c2[nH]1)C(=O)OC(C)(C)C` [Compound 109, tert-Butyl ((4-amino-7-(1H-pyrazol-3-yl)-1H-imidazo[4,5-c]quinolin-2-yl)methyl)(ethyl)carbamate]: the 50% effective concentration (EC50) was 0.88 µM.

In the case of `CCN(Cc1nc2c(N)nc3cc(-c4cc[nH]n4)ccc3c2[nH]1)C(=O)N(C)C` [Compound 110, 1-((4-Amino-7-(1H-pyrazol-3-yl)-1H-imidazo[4,5-c]quinolin-2-yl)methyl)-1-ethyl-3,3-dimethylurea], the concentration for a half-maximal effect (EC50) was determined as 0.9 µM.

Molecule `Nc1nc2cc(C(F)(F)F)ccc2c2[nH]c(CN3CCCC3=O)nc12` [Compound 163] had an EC50 of 48.4 µM. Against the preceding molecule, the EC50 is about 54-fold higher.

In the case of `CCN(Cc1nc2c(N)nc3ccccc3c2n1CCCC(=O)OC)C(C)=O` [Compound 164], the EC50 was 4.6 µM.

Molecule `CCN(Cc1nc2c(N)nc3cc(-c4ccccc4)ccc3c2[nH]1)C(C)=O` [Compound 165, N-[(4-amino-7-phenyl-1H-imidazo[4,5-c]quinolin-2-yl)methyl]-N-ethylacetamide] returned an EC50 of 0.19 µM. Against the preceding molecule, the EC50 is about 24-fold lower.

The molecule `CCN(Cc1nc2c(N)nc3cc(-c4cccnc4)ccc3c2[nH]1)C(C)=O` [Compound 166, N-[(4-amino-7-pyridin-3-yl-1H-imidazo[4,5-c]quinolin-2-yl)methyl]-N-ethylacetamide] yielded an EC50 of 3.4 µM. This EC50 lies about 18-fold higher than the previous one.

The molecule `CCN(Cc1nc2c(N)nc3cc(-c4ccncc4)ccc3c2[nH]1)C(C)=O` [Compound 167, N-[(4-amino-7-pyridin-4-yl-1H-imidazo[4,5-c]quinolin-2-yl)methyl]-N-ethylacetamide] gave an EC50 of 58 µM.

In turn, `CCN(Cc1nc2c(N)nc3cc(-c4cc(C)nn4C)ccc3c2[nH]1)C(C)=O` [Compound 168, N-[[4-amino-7-(2,5-dimethylpyrazol-3-yl)-1H-imidazo[4,5-c]quinolin-2-yl]methyl]-N-ethylacetamide] gave an EC50 of 101 µM.

In turn, `CCCn1cc(-c2ccc3c(c2)nc(N)c2nc(CN(CC)C(C)=O)[nH]c23)cn1` [Compound 169, N-[[4-amino-7-(1-propylpyrazol-4-yl)-1H-imidazo[4,5-c]quinolin-2-yl]methyl]-N-ethylacetamide] yielded an EC50 of 92 µM.

Turning to `CCN(Cc1nc2c(N)nc3cc(C(C)C)ccc3c2[nH]1)C(C)=O` [Compound 170, N-[(4-amino-7-propan-2-yl-1H-imidazo[4,5-c]quinolin-2-yl)methyl]-N-ethylacetamide], a half-maximal response (EC50) required 7.9 µM.

As for `CCc1ccc2c(c1)nc(N)c1nc(CN(CC)C(C)=O)[nH]c12` [Compound 171, N-[(4-amino-7-ethyl-1H-imidazo[4,5-c]quinolin-2-yl)methyl]-N-ethylacetamide], the EC50 stood at 3.2 µM.

Molecule `CCCc1ccc2c(c1)nc(N)c1nc(CN(CC)C(C)=O)[nH]c12` [Compound 172, N-[(4-amino-7-propyl-1H-imidazo[4,5-c]quinolin-2-yl)methyl]-N-ethylacetamide] registered an EC50 of 2.1 µM.

For the molecule `CCN(Cc1nc2c(N)nc3cc(C4CCCC4)ccc3c2[nH]1)C(C)=O` [Compound 173, N-[(4-amino-7-cyclopentyl-1H-imidazo[4,5-c]quinolin-2-yl)methyl]-N-ethylacetamide], it took 0.84 µM to reach a half-maximal effect (EC50).

On to `CCN(Cc1nc2c(N)nc3cc(-c4cccnc4F)ccc3c2[nH]1)C(C)=O` [Compound 175, N-[[4-amino-7-(2-fluoropyridin-3-yl)-1H-imidazo[4,5-c]quinolin-2-yl]methyl]-N-ethylacetamide], for which the EC50 stood at 2.6 µM. Compared with the last molecule, the EC50 is about 3.1-fold higher.

`CCN(Cc1nc2c(N)nc3ccccc3c2[nH]1)C(C)=O` [Compound 176] registered a concentration giving a half-maximal response (EC50) of 25.7 µM.

For `CCN(Cc1nc2c(N)nc3cc(Br)ccc3c2[nH]1)C(C)=O` [Compound 177], the EC50 turned out to be 7.4 µM.

In the case of `CCN(Cc1nc2c(N)nc3cc(Cl)ccc3c2[nH]1)C(C)=O` [Compound 179, N-[(4-amino-7-chloro-1H-imidazo[4,5-c]quinolin-2-yl)methyl]-N-ethylacetamide], the EC50 came out at 12.5 µM.

`CCN(Cc1nc2c(N)nc3cc(-n4cccn4)ccc3c2[nH]1)C(C)=O` [Compound 180, N-[(4-amino-7-pyrazol-1-yl-1H-imidazo[4,5-c]quinolin-2-yl)methyl]-N-ethylacetamide] displayed an EC50 of 1.5 µM. Against the preceding molecule, the EC50 is about 8.3-fold lower.

Molecule `CCN(Cc1nc2c(N)nc3cc(C4=CCCC4)ccc3c2[nH]1)C(C)=O` [Compound 183] came in with a half-maximal effective concentration (EC50) of 0.52 µM.

Turning to `CC(=O)N(C)Cc1nc2c(N)nc3ccccc3c2[nH]1` [Compound 187], the EC50 was determined as 64 µM.

Turning to `COC(=O)CCCn1c(CN(C)C(C)=O)nc2c(N)nc3ccccc3c21` [Compound 188], the response was half-maximal at 5.7 µM (EC50). Against the preceding molecule, the EC50 is about 11-fold lower.

Take `CCN(Cc1nc2c(N)nc3cc(C4CC4)ccc3c2n1Cc1ccc(OC)cc1)C(C)=O` [Compound 190]: the EC50 turned out to be 10.3 µM.

As for `CCN(Cc1nc2c(N)nc3ccccc3c2n1CCCNC(=O)OC(C)(C)C)C(C)=O` [Compound 191], the EC50 is 65 µM.

`CCN(Cc1nc2c(N)nc3ccc(Br)cc3c2[nH]1)C(C)=O` [Compound 194]: the concentration giving a half-maximal response (EC50) stood at 7.9 µM.

Consider `CCN(Cc1nc2c(N)nc3cc(N4CCNC4=O)ccc3c2n1Cc1ccc(OC)cc1)C(C)=O` [Compound 196], for which it took 32.7 µM to reach a half-maximal effect (EC50). Against the preceding molecule, the EC50 is about 4.1-fold higher.

`CCN(Cc1nc2c(N)nc3ccc(Cl)cc3c2[nH]1)C(C)=O` [Compound 197] registered an EC50 of 13.7 µM.

`CCOC(=O)c1cc2c(cc1Br)nc(N)c1nc(CN(CC)C(C)=O)[nH]c12` [Compound 198] registered an EC50 of 24.2 µM.

With `CCN(Cc1nc2c(N)nc3ccc(Br)cc3c2[nH]1)C(=O)OC` [Compound 200], a half-maximal effect (EC50) was put at 11.9 µM.

For `CCN(Cc1nc2c(N)nc3ccc(Br)cc3c2[nH]1)S(C)(=O)=O` [Compound 201], the EC50 is 20.8 µM.

For `CCN(Cc1nc2c(N)nc3ccc(Br)cc3c2[nH]1)S(=O)(=O)c1ccc(C)cc1` [Compound 202], the EC50 was found to be 35.9 µM.

Turning to `CCN(Cc1nc2c(N)nc3ccc(Br)cc3c2[nH]1)C(=O)C(C)C` [Compound 203], the EC50 was determined as 10.8 µM.

Molecule `CCN(Cc1nc2c(N)nc3ccc(Br)cc3c2[nH]1)C(=O)c1ccccc1` [Compound 204] yielded an EC50 of 6.7 µM.

Turning to `CCN(Cc1nc2c(N)nc3ccccc3c2n1CCC(=O)N1CCOCC1)C(=O)OC(C)(C)C` [Compound 205], the EC50 came out at 36 µM.

On to `CCN(Cc1nc2c(N)nc3ccc(-n4cccn4)cc3c2[nH]1)C(C)=O` [Compound 207], for which the concentration giving a half-maximal response (EC50) was found to be 73 µM.

Regarding `CCN(Cc1nc2c(N)nc3cc(Br)ccc3c2n1CCCC(=O)N1CCN(C)CC1)C(C)=O` [Compound 209], the EC50 was 22 µM.

In the case of `CCN(Cc1nc2c(N)nc3cc(Br)ccc3c2n1CCCC(=O)NC)C(C)=O` [Compound 210], the EC50 stood at 61 µM.

`CCN(Cc1nc2c(N)nc3ccccc3c2n1CCC(=O)N1CCN(C(=O)OC(C)(C)C)CC1)C(=O)OC(C)(C)C` [Compound 211] displayed an EC50 of 40 µM.
